Test results from patent US20090317419A1, “Tetramers” (Duke University, priority 2008, published 2009).
Where two headings read alike, the source gives them in different places. Ends that are not written are not given here. * marks the point of attachment. Biotin = O=C1N[C@H]2[C@H](CS[C@H]2CCCCC(=O)*)N1

Key:
[1] = test system: CD19+ B cells of HIV-1 infected subject
Description: Staining of bulk populations for the sorts. Cells from uninfected or HIV-1 infected patients were obtained by leukopheresis under an IRB-approved protocol and were rested in culture overnight in 10% FBS in RPMI-1640 at 37° C. in 5% CO2. Rested cells were enriched for B cells by depletion of non-B cells using magnetic bead separation (BD Biosciences, Mountain View, Calif.). […] Cells were sorted on a BD FACS Aria (BD Biosciences, Mountain View, Calif.) into CD3^− CD14^− CD16^− CD19^+ tetramer and CD3^− CD14^− CD16^− CD19^+ tetramer^+ pools and also as single cells into a 96-well plates containing RNA extraction buffer.

[2] = test system: mAb 13H11 and mAb 2F5 on beads; conditions: flow cytometry, mAbs 13H11 and 2F5 on beads
Description: Antibody-coated beads. Carboxyl-polystyrene beads (3.0-3.4 μm) (Spherotech, Inc., Lake Forest, Ill.) were resuspended in 0.01 M sodium acetate buffer (pH 5.0) and reacted (20° C.×1 hr) with 1-ethyl-3-(3-dimethylaminopropyl) carbodiimide hydrochloride (EDC) (Sigma-Aldrich, Co., St. Louis, Mo.) at a ratio of 3.1 mg beads to 1 mg EDC. Beads were washed with sodium acetate buffer, resuspended in a minimal volume before adding purified mAb in the same buffer (ratio of 16 mg beads to 1 mg mAb), incubated (20° C.×2 hrs), then washed with sodium acetate buffer. Beads were resuspended at 5% in PBS containing 1% bovine serum albumin and 0.02% sodium azide.
(§1) Use of antibody-coated beads and cell lines for tetramer quality control. Tetramer stocks were diluted to twice the desired final concentration in PBS containing 1% BSA. An equal volume of beads or cells at 5×10^5 up to 2×10^6 per sample were mixed with tetramer and incubated (4° C.×30 min). Beads or cells were washed with PBS+1% BSA before being fixed in 2% methanol-free formaldehyde (Polysciences, Inc, Warrington, Pa.) in PBS. Samples were stored at 4° C. prior to being analyzed by flow cytometry (BD LSR II, Becton Dickinson, Mountain View, Calif.). Data were analyzed using FlowJo (Tree Star, Ashland, Oreg.). For tetramer titration 40-80 ng tetramer per 10^6 cells/beads was serially diluted over 8-12 points. Optimal concentrations determined by this method were used for subsequent experiments. For cold competition experiments the incubation step was performed by staining with 10-fold excess unlabeled tetramer (4° C.×30 min) prior to the addition of APC-labeled tetramer. For cell dilution experiments, a mixture of mAb cell lines was made and then 1:10 serial dilutions of cells prepared. For cross competition experiments, mixtures of cells were prepared and then stained singly with anti-IgG reagents or tetramer, or the cells were doubly stained with both reagents either sequentially or concurrently.

13H11 cells = conditions: flow cytometry
Description: as §1

[3] = test system: mixture of anti-gp41 MPER 13H11 cells and anti-gp120 V3 F39F cells
Description: as §1

Biotin-GGGQQEKNEQELLELDKWASLWN [gp41 MPER tetramer]
tetramer positive cells of CD19+ B cells ([1]; before sorting, non-B cell depleted PBMC): 0.15% | tetramer positive cells of CD19+ B cells ([1]; reanalysis after sorting of tetramer positive gate): 45.3% | binding to antibody-coated beads [2]: bound to both the non-neutralizing mAb 13H11 and the neutralizing anti-gp41 mAb 2F5 | binding to mAb cell line (13H11 cells): bound | cells stained with tetramer ([3]; mixture diluted tenfold with F39F cells): 1.47% | cells staining over background ([3]; mixture further diluted tenfold with F39F cells): 0.12% | cells stained with tetramer ([3]; mixture of 85% F39F cells and 15% 13H11 cells): 15.1%
